Earlier results on 1 molecule are cited in US20050147578A1, “Topical cosmetic composition having a natural plant active ingredient and method of using same” (Avon Products, Inc., priority 2001, published 2005).

This series deals with Heat shock 70 protein.

In the case of `O=[As]O` [Sodium arsenite, sodium arsenite], the “production of heat shock protein (known effect of positive control)” value is reported as “stimulate the production of heat shock protein”.
